Assay results taken from patent US4006240A, “Alcohol aversion process by enzyme inhibition” (priority 1975, dated 1977).

Experiments:
[1] = system: rats trained on a conditioned avoidance procedure; settings: 2.0 mg./kg. intraperitoneally, 3 hr. session; cited from earlier work
[2] = Dose without significant effect on water or total fluid intake; settings: mouse, in vivo, ip; intraperitoneal injection at 12 hourly intervals, read from dose graph; read-out: Dose which has no significant effect on water or total fluid intake
Description: The dose of the choline acetylase inhibitor when administered according to the present invention is selected to cause effective aversion to alcohol consumption. Effective aversion is intended to mean either the complete lack of compulsion to consume alcohol or at least a reduction of the compulsion to a point where the subject may consume alcohol in a strictly elective manner without being dependent thereon. The dose is also selected to be substantially free of undesirable side effects. By this is meant that the side effects are at most of a trivial nature and unimportant relative to the benefit derived from the treatment. One effect of excessive dosage with a choline acetylase inhibitor is a reduction in water consumption. […]
The dose of trans-4-[2-(1-naphthyl)vinyl]pyridine hydrochloride which has no significant effect on water or total fluid intake of these animals was determined to be 2 mg./kg. This was determined by intraperitoneal injection of trans-4-[2-(1-naphthyl)vinyl]pyridine hydrochloride at 12 hourly intervals during the test period at various dosage concentrations for various groups of mice. […]

C57B1/6J mice = assay: Ethanol aversion in C57B1/6J mice, free choice of water and 5% ethanol; assay type: in vivo, mouse; settings: for 5% alcohol daily consumption: 2 mg./kg. i.p. at 12 hourly intervals; for 5% alcohol daily consumption / Water daily consumption: N = 8
Description: Adult male C57B1/6J mice weighing 20-25 g. were then placed into individual cages equipped with two small drinking tubes, one filled with water and the other with 5% ethanol in water. Food, water and alcohol solution were available ad libitum and the daily consumption of each was recorded at 10 a.m. The positions of the tubes were interchanged daily and different tubes were ocassionally substituted. After a period of 4 days to establish a reference base for alcohol and water consumption respectively, the animals were treated by intraperitoneal injection with 2 mg./kg. of body weight of trans-4-[2-(1-naphthyl)vinyl]-pyridine hydrochloride at 12 hourly intervals on the 5th and 6th days. Drug treatment was terminated on the 6th day and the animals were kept for an additional two days. The average values of water, 5% alcohol, and total fluid intake for each of these 8 days of the experiment are shown in the following table.

[3] = day 5, 2 mg./kg. i.p. at 12 hourly intervals
[4] = day 6, 2 mg./kg. i.p. at 12 hourly intervals

Compound	Increase in the response rate [1]	NOAEL [2]	Alcohol consumption as share of the daily fluid intake on the days of drug treatment (C57B1/6J mice; 5th and 6th days, 2 mg./kg. i.p., about 65% without drug)	Total daily fluid intake during the experimental period (C57B1/6J mice; 8-day experiment, drug on days 5 and 6)	5% alcohol daily consumption (C57B1/6J mice; day 5 (first treatment day))	5% alcohol as % of total daily fluid intake (C57B1/6J mice; [3])	Total daily fluid consumption (C57B1/6J mice; [3])	Water daily consumption (C57B1/6J mice; [3])	5% alcohol daily consumption (C57B1/6J mice; day 6 (second treatment day))	5% alcohol as % of total daily fluid intake (C57B1/6J mice; [4])	Total daily fluid consumption (C57B1/6J mice; [4])	Water daily consumption (C57B1/6J mice; [4])	Water and alcohol intakes on cessation of drug treatment (C57B1/6J mice; days 7 and 8, after drug treatment ended)
CC(N)Cc1ccccc1 (stereo not shown) [amphetamine]	~75%												
C(=C\c1cccc2ccccc12)/c1ccncc1.Cl [N V P, trans-4-[2-(1-naphthyl)vinyl]pyridine hydrochloride]		2 mg/kg	about 42%	remained substantially constant	60 ± 2 mL/kg	34%	177 mL/kg	117 ± 4 mL/kg	82 ± 3 mL/kg	43%	193 mL/kg	111 ± 4 mL/kg	returned substantially to their pretreatment values
